Values quoted from earlier work, collected in US9718036B2, “Method of preparing carrier liquids” (The University of Liverpool, priority 2011, dated 2017).
Converted amounts (≈) assume the structure as drawn.

Settings: at 20° C.

In the case of `CC1(C)C(/C=C(\Cl)C(F)(F)F)C1C(=O)OC(C#N)c1cccc(Oc2ccccc2)c1` (stereo not shown) [λ-cyhalothrin], the solubility in water is listed as 5 µg/mL (≈ 11.1 µM).
